For this test, the system named is human keratinocytes (HaCaT). Briefly: Scratch wound healing (skin regeneration) test, time-lapse microscopy. Type of test: cell-based. Conditions: after 48 hours, scratched HaCaT. As to the method:
First, human keratinocytes (HaCaT) purchased from CLS (Cat No. 300493) were seeded onto a 24-well cell culture plate at a concentration of 2.0×10^5 cells/600 μL, in DMEM (Lonza, #12-604F) containing 10% fetal bovine serum (GIBCO, #16000-044) and antibiotics (Lonza, #17-602E). After culturing in a 5% CO2 incubator at 37° C. for 24 hours and replacing the medium with DMEM containing 1% fetal bovine serum, the cells were cultured further for 16 hours. After the cells were filled on the culture plate, the cells were damaged by applying a linear scratch using a scratcher (SPL, #SPL201925) and then washed twice. Core-shell network solutions comprising 0.005 wt %, 0.25 wt %, 0.5 wt % or 1 wt % of the core-shell network structure based on the total weight of the solution, were prepared in the same manner as in Example 3 (Examples 4-7). […]
The negative control group, the positive control group and the groups treated with the core-shell network structure at different concentrations were placed on a time-lapse microscope (JuLI™ Stage, NanoEnT) stage in a CO2 incubator and each well was imaged for 48 hours with 1-hour intervals. Then, wound healing area (%) was determined from the acquired images using a software analysis tool (Wound Healing tool).

The values that follow come from US11896685B2, “Core-shell network structure comprising biopolymer and composition comprising same” (AMOREPACIFIC CORPORATION, priority 2018, dated 2024).

As for madecassoside, the “wound healing area as compared to the negative control group” value worked out at 1.37 times. The same substance showed a wound healing area (negative control 30.06%) of 41.25%.
